Results: patent US9174917B2, “Bexarotene analogs” (Arizona Board of Regents on Behalf of Arizona State …, priority 2010, dated 2015)

Tests used:
[1] = tested on: RXR; conditions: from the literature; cited from earlier work
[2] = tested on: CTCL cells; test: DNA microarray gene expression analysis in CTCL cells; format: cell-based, human; conditions: 4-hour treatment, versus ethanol vehicle control
Description: DNA microarray analysis is a method to assess genome-wide gene expression by simultaneously quantitating mRNA levels from all or a subset of genes in a genome and comparing these levels between a control and an experimental sample. These changes are compared, such as in as wild type versus mutant strains or cells with no treatment compared to cells treated with a reagent. RNA is extracted from the two cell types, and either converted to cDNA or amplified to cRNA, and then this message pool is used to assess gene expression changes. Both pools of labeled message are hybridized to a DNA microarray (or “gene chip”). These microarrays have all genes in the genome spotted onto the array in a precise fashion, such that this chip experiment becomes a genome-wide northern blot, assaying the message levels of all genes in the cells. Since the control and the experimental are hybridized to the same chip, there can be direct comparisons performed between the starting mRNA levels of the two, looking for genes that are under or over expressed in the experimental as compared to the control, analyzing the intensity of the hybridization of both cDNA pools.
The total RNA will be isolated from human CTCL cells, either untreated or treated with bexarotene or the appropriate analog. The RNA quality and integrity will be tested before hybridization using denaturing gel electrophoresis as well as reverse transcription followed by PCR. Once high quality RNA is isolated, labeled cRNA can be generated with the Genisphere 350 kit. Microarrays are readily available for such tests, for example, human microarrays can be obtained from Washington University St. Louis (Human HEEBO microarrays), or alternatively from the Toronto Microarray Centre (Toronto, Canada).
CTCL cells were treated bexarotene or ethanol vehicle control and total RNA was extracted after 4-hour treatment using the BioRad Aurum Total RNA Mini kit. Total RNA extracted was utilized to produce cRNA using a Genisphere 350 kit and was used to hybridize human HEEBO microarray slides obtained from GCAT (Genome Consortium for Active Teaching). The Genisphere 350 kit high sensitivity protocol was used and representative results were obtained (data not shown). […] Likewise, there was a 2.9-fold downregulation of REEP, a gene that occurs in a deleted segment of human 5q31 in malignant myeloid diseases; and 2.6-fold downregulation of RAC GAP1, a GTPase activating protein of RAC, a protein required for malignant cell movement106; and 2.5-fold downregulation of karyopherin alpha 1 (importing alpha 5), a protein required for STAT1 import into the nucleus. […]

| Compound | reported / documented RXR activity [1] | downregulation of RAC GAP1 [2] [fold] | downregulation of REEP [2] [fold] | downregulation of karyopherin alpha 1 (importing alpha 5) [2] [fold] | upregulation of death associated protein kinase 3 [2] [fold] | upregulation of endothelin converting enzyme 1 [2] [fold] | upregulation of urocortin [2] [fold] |
| --- | --- | --- | --- | --- | --- | --- | --- |
| Cc1cc2c(cc1C1(c3ccc(C(=O)O)cc3)CC1)C(C)(C)CCC2(C)C [Compound 105] | potent, RXR-selective agonists |  |  |  |  |  |  |
| CC(/C=C/C1(c2cc3c(cc2C)C(C)(C)CCC3(C)C)CC1)=C\C(=O)O [Compound 106] | potent, RXR-selective agonists |  |  |  |  |  |  |
| C=C(c1ccc(C(=O)O)cc1)c1cc2c(cc1C)C(C)(C)CCC2(C)C [bexarotene] |  | 2.6 | 2.9 | 2.5 | 4.3 | 4.6 | 3.5 |
